Legend:
[1] = In vitro serum stability of radiolabeled C-NE3TA complexes in human serum (SE-HPLC); format: in vitro ADME; details: 37° C., up to 11 days
Experimental: C-NE3TA was radiolabeled with ^90Y, ^177Lu, ^203Pb, ^205/6Bi, or ^153Gd as previously described (Chong, H. S.; Milenic, D. E.; Garmestani, K.; Brady, E. D.; Arora, H.; Pfiester, C.; Brechbiel, M. W., Nucl. Med. Biol. 2006, 33, 459-67; Chong H S, Garmestani K, Bryant Jr., L H Milenic D E, Overstreet T, Birch N, Le N, Brady E D, Brechbiel M W. J. Med. Chem. 2006, 49, 2055-2062). In vitro serum stability of the radiolabeled complexes purified via ion-exchange chromatography was performed to determine if C-NE3TA labeled with the radioisotopes remained stable without transchelation or loss of their respective radionuclide in human serum. This was assessed by measuring the transfer of radionuclide from the complex to serum proteins over the course of 11 days.
In vitro stability of the radiolabeled metal complexes. The stability of the purified radiolabeled complexes was evaluated in human serum (Gemini Bioproducts, Woodland, Calif.) for up to 11 days. The serum stability of the radiolabeled complexes was assessed by measuring the transfer of the radionuclide from each complex to serum proteins using SE-HPLC methods. Radiolabeled complexes were diluted to an appropriate volume that allowed for preparation of multiple samples containing 5-10 μCi and were filter-sterilized using a Millex-GV 0.22 μm filter. This stock solution was then mixed with 1400 μL of sterile normal human serum. Aliquots (200 μL) were drawn and separated into individual tubes for subsequent analysis using aseptic technique. The samples were incubated at 37° C., and at designated intervals, subjected to analysis by SE-HPLC. Samples were loaded onto the HPLC and eluted with PBS, pH 7.4 isocratically at 1 mL/min. […] Radioactivity associated with a transfer to serum proteins generally appeared at ˜6 min.

[2] = In vivo biodistribution of radiolabeled complexes in normal athymic mice; details: for percent injected dose per gram, Blood / percent injected dose per gram, Femur / percent injected dose per gram, Heart / percent injected dose per gram, Kidney / percent injected dose per gram, Liver / percent injected dose per gram, Lung / percent injected dose per gram, Spleen: non-tumor bearing mice, ± SD
Experimental: The in vivo stability of the radiolabeled complexes was evaluated by performing biodistribution studies in normal athymic mice. Selected organs and the blood were harvested at five time points, 0.5, 1, 4, 8, and 24 h post-injection and the radioactivity measured. […] C-NE3TA radiolabeled with ^153Gd was almost completely cleared from blood, liver, spleen, lung, heart, and femur in less than 4 hours, and radioactivity level in the kidney was 0.16%±0.11 ID/g at 24 hour post-injection (Table 9).
In vivo biodistribution studies oh the radiolabeled metal complexes. Female athymic mice were obtained from Charles River Laboratories (Wilmington, Mass.) at 4-6 weeks of age. The pH of the radiolabeled ligands was adjusted to pH ˜7.0 with 0.5 M sodium bicarbonate (pH 10.5) and diluted in phosphate-buffered saline. The radiolabeled ligands ([…] for ^86Y, ^205/6Bi, ^177Lu, and ^203Pb) were administered to the mice in 200 μL of solution via tail vein injection. The mice (5 per data point) were sacrificed by exsanguination at 0.5, 1, 4, 8, and 24 h. Blood and the major organs were harvested, wet-weighed and the radioactivity measured in a γ-scintillation counter (1480 Wizard, Perkin Elmer). The percent injected dose per gram (% ID/g) was determined for each tissue. The values presented are the mean and standard deviation for each tissue.

O=C([O-])CNC(Cc1ccc([N+](=O)[O-])cc1)CN1CCN(CC(=O)[O-])CCN(CC(=O)[O-])CC1.[Bi+3] (stereo not drawn) [^205/6Bi-C-NE3TA]
stability in human serum (in words) [1]: no measurable loss of radioactivity
percent injected dose per gram, Blood ([2]; 0.50 hr): 0.46 ± 0.18 % ID/g
percent injected dose per gram, Femur ([2]; 0.50 hr): 0.62 ± 0.27 % ID/g
percent injected dose per gram, Heart ([2]; 0.50 hr): 0.36 ± 0.09 % ID/g
percent injected dose per gram, Kidney ([2]; 0.50 hr): 5.05±0.24 % ID/g
percent injected dose per gram, Liver ([2]; 0.50 hr): 1.01 ± 0.15 % ID/g
percent injected dose per gram, Lung ([2]; 0.50 hr): 0.56 ± 0.13 % ID/g
percent injected dose per gram, Spleen ([2]; 0.50 hr): 0.45 ± 0.24 % ID/g
percent injected dose per gram, Kidney ([2]; 0.50 hr, listed as 205/6BiC-NE3TA): 5.05 ± 0.24 % ID/g
percent injected dose per gram, Blood ([2]; 1.00 hr): 0.13 ± 0.02 % ID/g
percent injected dose per gram, Femur ([2]; 1.00 hr): 0.26 ± 0.05 % ID/g
percent injected dose per gram, Heart ([2]; 1.00 hr): 0.19 ± 0.02 % ID/g
percent injected dose per gram, Kidney ([2]; 1.00 hr): 4.69 ± 0.55 % ID/g
percent injected dose per gram, Liver ([2]; 1.00 hr): 0.80 ± 0.16 % ID/g
percent injected dose per gram, Lung ([2]; 1.00 hr): 0.25 ± 0.03 % ID/g
percent injected dose per gram, Spleen ([2]; 1.00 hr): 0.25 ± 0.02 % ID/g
percent injected dose per gram, Blood ([2]; 4.00 hr): 0.03 ± 0.00 % ID/g
percent injected dose per gram, Femur ([2]; 4.00 hr): 0.23 ± 0.06 % ID/g
percent injected dose per gram, Heart ([2]; 4.00 hr): 0.12 ± 0.01 % ID/g
percent injected dose per gram, Kidney ([2]; 4.00 hr): 3.42 ± 0.55 % ID/g
percent injected dose per gram, Liver ([2]; 4.00 hr): 0.52 ± 0.13 % ID/g
percent injected dose per gram, Lung ([2]; 4.00 hr): 0.16 ± 0.01 % ID/g
percent injected dose per gram, Spleen ([2]; 4.00 hr): 0.18 ± 0.01 % ID/g
percent injected dose per gram, Blood ([2]; 8.00 hr): 0.02 ± 0.01 % ID/g
percent injected dose per gram, Femur ([2]; 8.00 hr): 0.14 ± 0.02 % ID/g
percent injected dose per gram, Heart ([2]; 8.00 hr): 0.09 ± 0.01 % ID/g
percent injected dose per gram, Kidney ([2]; 8.00 hr): 1.99 ± 0.32 % ID/g
percent injected dose per gram, Liver ([2]; 8.00 hr): 0.37 ± 0.08 % ID/g
percent injected dose per gram, Lung ([2]; 8.00 hr): 0.13 ± 0.04 % ID/g
percent injected dose per gram, Spleen ([2]; 8.00 hr): 0.12 ± 0.02 % ID/g
percent injected dose per gram, Blood ([2]; 24.00 hr): 0.01 ± 0.00 % ID/g
percent injected dose per gram, Femur ([2]; 24.00 hr): 0.13 ± 0.01 % ID/g
percent injected dose per gram, Heart ([2]; 24.00 hr): 0.08 ± 0.02 % ID/g
percent injected dose per gram, Kidney ([2]; 24.00 hr): 0.73±0.19 % ID/g
percent injected dose per gram, Liver ([2]; 24.00 hr): 0.14 ± 0.03 % ID/g
percent injected dose per gram, Lung ([2]; 24.00 hr): 0.09 ± 0.01 % ID/g
percent injected dose per gram, Spleen ([2]; 24.00 hr): 0.13 ± 0.01 % ID/g
percent injected dose per gram, Kidney ([2]; 24.00 hr, listed as 205/6BiC-NE3TA): 0.73 ± 0.19 % ID/g
blood and organ clearance (in words) ([2]; normal athymic mice): rapidly cleared from the blood, lung, heart, and femur
